Assay results taken from patent publication US11364237B2, “Composition for inhibiting cancer metastasis and treating cancer” (ONCOCROSS CO., LTD., priority 2017, dated 2022).

Tests used:
[1] = test system: pancreatic cancer cell lines Aspc-1, MIAPaCA2 and Panc-1; experiment: MTT cell survival rate, pancreatic cancer cell lines; assay type: cell-based, human; conditions: for cytotoxicity (cell survival rate), single administration: up to 1 mM chlorphenesin, up to 100 μM chloropyrazine, 24, 48, 72 hours, FIGS. 30 and 32
Procedure: (§1) The pre-treated cell lines were incubated with 5 mg/ml MTT for 4 hours. Thereafter, the medium was removed, and 150 μL of the solubilization solution and the stop solution were added, followed by incubation at 30° C. for 4 hours. The absorbance of the reaction solution was measured at 570 nm. The cell survival rate was calculated using the equation 1 as described above.
(§2) The pre-treated cell lines were incubated with 5 mg/ml MTT for 4 hours. Thereafter, the medium was removed, and 150 μL of the solubilization solution and the stop solution were added, followed by incubation at 30° C. for 4 hours. The absorbance of the reaction solution was measured at 570 nm. The cell survival rate was calculated using the above equation 1.

[2] = test system: colorectal cancer cell lines CT26, HCT116 and SW480; experiment: MTT cell survival rate, colorectal cancer cell lines; assay type: cell-based, mouse (CT26), human (HCT116; conditions: single treatment, 24, 48 and 72 hours; for concentration at which toxicity was shown (cell survival rate): FIGS. 1 to 3
Procedure: In order to confirm the effect of chlorphenesin (named as OC-201), chloroquine (named as OC-202) and chloropyrazine (named as OC-203) alone on the survival rate of colorectal cancer cells, cell survival rate was evaluated for the colorectal cancer cell lines CT26, HCT116 and SW480 cell lines by MTT assay (Promega, Ltd.) according to the manufacturer's protocol. […] The pre-treated cell lines were incubated with 5 mg/mL MTT for 4 hours. Thereafter, the medium was removed, and 150 μL of the solubilization solution and the stop solution were added, followed by incubation at 30° C. for 4 hours. The absorbance of the reaction solution was measured at 570 nm. The cell survival rate was calculated using the following Equation 1. Cell survival rate=absorbance of experimental group (at 570 nm)/absorbance of control (at 570 nm)×100(%) [Equation 1]
as §2, with “mg/mL” for “mg/ml”, “Equation” for “equation”

SNU 308 cell line = experiment: MTT cell survival rate; assay type: cell-based, human; conditions: after 48 hours, FIG. 47
Procedure: as §1, with “using” for “using the”

SNU1079 = experiment: MTT cell survival rate; assay type: cell-based, human; conditions: FIG. 47
Procedure: as §1, with “using” for “using the”

[3] = test system: colorectal cancer cells CT26 and HCT116; experiment: Transwell migration assay at low concentration; assay type: cell-based, mouse (CT26), human (HCT116); conditions: 1 μM chlorphenesin; 8 hours; FIG. 58
[4] = test system: biliary tract cancer cell line SNU1079; experiment: Transwell migration assay with Combination Index; conditions: 18 hours, FIGS. 51 and 52
[5] = test system: colorectal cancer cell lines HCT116; experiment: Soft agar colony formation assay (anchorage independent growth), chlorphenesin alone; assay type: cell-based, human; conditions: 3 weeks, FIG. 27
CT26 cell line = experiment: Transwell migration assay, chlorphenesin alone; assay type: cell-based, mouse; conditions: 18 hours, FIGS. 10 and 11
[6] = test system: biliary tract cancer cell lines SNU1079 and SNU308; conditions: human, 48 h
Procedure: as §1, with “using” for “using the”
as §2

SW480 cell line = experiment: Transwell migration assay, chlorphenesin alone; assay type: cell-based, human; conditions: 18 hours, laminin in lower well, FIGS. 6 and 7
[7] = test system: colorectal cancer cell line HCT116; experiment: Wound healing assay; conditions: 0, 8 and 24 hours, FIGS. 21 to 23
[8] = test system: colorectal cancer cell line CT26; experiment: Wound healing assay at low concentration; assay type: cell-based, mouse; conditions: 1 μM chlorphenesin; 24 hours; FIG. 59
Procedure: Wound healing analysis was performed to measure cell motility. […] After incubation of the cells for 24 hours in the presence or absence of chlorphenesin (1 μM), a photograph of the dyed monolayers was taken with a microscope.

HCT116 cell line = experiment: Transwell migration assay, chlorphenesin alone; assay type: cell-based, human; conditions: 18 hours, FIGS. 8 and 9
CT26 cell-induced tumors = experiment: CT26 tumor animal model, tumor growth and lung metastasis; assay type: in vivo, Balb/c mice
Procedure: Specifically, 60 Balb/c mice were subcutaneously inoculated once with 100 μL of CT26 cell suspension (1×10^7 cells/mL) to induce tumors, thereby producing a xenograft animal model. […] For the chlorphenesin single administration, 10 animal models were abdominally administered with 10 mg/kg chlorphenesin (3 times a week) for 5 weeks or 14 animal models were orally administered with 20 mg/kg chlorphenesin (5 times a week) for 5 weeks. 14 animal models were administered with the same dose of PBS as chlorphenesin as a negative control. […] The body weight of the animal models was measured once a week, and the tumor size was measured once a week from the day of drug administration. After 6 weeks, animal models were anesthetized with ether, and tumors and lungs were collected.

Structure (SMILES) | cytotoxicity (cell survival rate), single administration [1] | concentration at which not toxic (cell survival rate) ([2]; FIG. 3) [µM] | concentration at which cytotoxicity was shown ([1]; single administration, FIG. 31) [µM] | concentration at which toxicity was shown (cell survival rate) [2] | concentration at which cytotoxicity was shown (SNU 308 cell line) [µM] | concentration at which cytotoxicity was shown (SNU1079; after 48 hours) [µM] | concentration at which cytotoxicity was shown (SNU1079; for 24 hours) [µM] | invasion ability and migration ability of the cells compared to the control [3] | concentration at which cell migration was decreased [4] [µM] | concentration at which the decrease of cell migration was remarkable [4] [µM] | concentration at which colony forming ability was decreased [5] [µM] | concentration at which cell migration was specially decreased (CT26 cell line) [µM] | concentration at which apparent cytotoxicity was shown [6] [µM] | concentration at which cell migration was significantly reduced (SW480 cell line) [µM] | concentration at which migration was decreased (wound healing) [7] [µM] | mobility of the CT26 cell line (wound healing) [8] | concentration at which cell migration was specially decreased (HCT116 cell line) [µM] | tumor size compared with the control groups (CT26 cell-induced tumors; chlorphenesin 20 mg/kg orally, 5 times a week for 5 weeks, FIG. 61) | cancer metastasis to lungs compared to control groups (CT26 cell-induced tumors; chlorphenesin-treated group, 5 weeks dosing, lungs collected after 6 weeks, FIG. 60)
Clc1cnccn1 [chloropyrazine] | did not show cytotoxicity even at high doses | ≤ 100 | – | – | – | – | – | – | – | – | – | – | – | – | – | – | – | – | –
CCN(CC)CCCC(C)Nc1ccnc2cc(Cl)ccc12 (stereo not drawn) [chloroquine] | – | – | ≥ 50 | more than 10 μM | ≥ 50 | ≥ 25 | ≥ 50 | – | – | – | – | – | – | – | – | – | – | – | –
OCC(O)COc1ccc(Cl)cc1 (stereo not drawn) [chlorphenesin] | did not show cytotoxicity even at high doses | – | – | more than 500 μM | – | – | – | significantly reduced | ≥ 25 | ≥ 100 | ≥ 250 | ≥ 250 | ≥ 1000 | ≥ 25 | ≥ 25 | reduced | ≥ 250 | reduction in the tumor size | no cancer metastasis to lungs
